Source: patent US11090319B2, “Therapeutic uses of pharmaceutical compositions comprising cyclic boronic acid ester derivatives” (Melinta Subsidiary Corp., priority 2010, dated 2021)
pIC50: −log10 of the molar value. Like-named read-outs stand apart in the source and are kept apart here.

How the values were obtained:
[1] = test system: EC1007 Escherichia coli KPC-3; test: Checkerboard assay, ceftazidime potentiation; conditions: ceftazidime MIC 8-fold; EC1007 KPC-3 class A
[2] = test system: KP1007 Klebsiella pneumoniae OXA-10, qnrB4; test: Checkerboard assay, ceftazidime potentiation; conditions: ceftazidime MIC 8-fold; KP1007 OXA-10, qnrB4 class D
[3] = test system: SM1000 Serratia marcescens SME-2; test: Checkerboard assay, biapenem potentiation; conditions: Biapenem MIC 8-fold; SM1000 SME-2 class A
[4] = test system: EC1011 Escherichia coli TEM-26; test: Checkerboard assay, ceftazidime potentiation; conditions: ceftazidime MIC 8-fold; EC1011 TEM-26 class A
[5] = test system: ECL1003 Enterobacter cloacae Hyper AmpC expression; test: Checkerboard assay, ceftazidime potentiation; conditions: ceftazidime MIC 8-fold; ECL1003 Hyper AmpC class C
[6] = test system: EC1014 Escherichia coli DHA-1; test: Checkerboard assay, ceftazidime potentiation; conditions: ceftazidime MIC 8-fold; EC1014 DHA-1 class C
[7] = test system: ec300 Escherichia coli TEM-3; test: Checkerboard assay, ceftazidime potentiation; conditions: ceftazidime MIC 8-fold; ec300 TEM-3 class A
[8] = test system: EC1008 Escherichia coli CTX-M-3; test: Checkerboard assay, ceftazidime potentiation; conditions: ceftazidime MIC 8-fold; EC1008 CTX-M-3 class A
[9] = test system: ec306 Escherichia coli SHV-2; test: Checkerboard assay, ceftazidime potentiation; conditions: ceftazidime MIC 8-fold; ec306 SHV-2 class A
[10] = test system: KP1008 Klebsiella pneumoniae KPC-2; test: Checkerboard assay, ceftazidime potentiation; conditions: ceftazidime MIC 8-fold; KP1008 KPC-2 class A
[11] = test system: KP1004 Klebsiella pneumoniae KPC-2; test: Checkerboard assay, ceftazidime potentiation; conditions: ceftazidime MIC 8-fold; KP1004 KPC-2 class A
[12] = test system: CF1000 Citrobacter freundii Hyper AmpC expression; test: Checkerboard assay, ceftazidime potentiation; conditions: ceftazidime MIC 8-fold; CF1000 Hyper AmpC class C
[13] = test system: EC1010 Escherichia coli CMY-6; test: Checkerboard assay, ceftazidime potentiation; conditions: ceftazidime MIC 8-fold; EC1010 CMY-6 class C
[14] = test system: EC1004 Escherichia coli CMY-2; test: Checkerboard assay, ceftazidime potentiation; conditions: ceftazidime MIC 8-fold; EC1004 CMY-2 class C
[15] = test system: EC1006 Escherichia coli FOX-5; test: Checkerboard assay, ceftazidime potentiation; conditions: ceftazidime MIC 8-fold; EC1006 FOX-5 class C
[16] = test system: EC1007 Escherichia coli KPC-3; test: Checkerboard assay, biapenem potentiation; conditions: Biapenem MIC 8-fold; EC1007 KPC-3 class A
[17] = test system: ec307 Escherichia coli SHV-4; test: Checkerboard assay, ceftazidime potentiation; conditions: ceftazidime MIC 8-fold; ec307 SHV-4 class A
[18] = test system: ec303 Escherichia coli TEM-12; test: Checkerboard assay, ceftazidime potentiation; conditions: ceftazidime MIC 8-fold; ec303 TEM-12 class A
[19] = test system: EC1012 Escherichia coli TEM-12; test: Checkerboard assay, ceftazidime potentiation; conditions: ceftazidime MIC 8-fold; EC1012 TEM-12 class A
[20] = test system: EC1016 Escherichia coli FOX-5; test: Checkerboard assay, ceftazidime potentiation; conditions: ceftazidime MIC 8-fold; EC1016 FOX-5 class C
[21] = test system: ec302 Escherichia coli TEM-10; test: Checkerboard assay, ceftazidime potentiation; conditions: ceftazidime MIC 8-fold; ec302 TEM-10 class A
[22] = test system: KP1005 Klebsiella pneumoniae CTX-M-14; test: Checkerboard assay, ceftazidime potentiation; conditions: ceftazidime MIC 8-fold; KP1005 CTX-M-14 class A
[23] = test system: KP1010 Klebsiella pneumoniae SHV-12; test: Checkerboard assay, ceftazidime potentiation; conditions: ceftazidime MIC 8-fold; KP1010 SHV-12 class A
[24] = test system: KP1009 Klebsiella pneumoniae CTX-M-15; test: Checkerboard assay, ceftazidime potentiation; conditions: ceftazidime MIC 8-fold; KP1009 CTX-M-15 class A
[25] = test system: ec304 Escherichia coli TEM-26; test: Checkerboard assay, ceftazidime potentiation; conditions: ceftazidime MIC 8-fold; ec304 TEM-26 class A
[26] = test system: ec310 Escherichia coli ACT-1; test: Checkerboard assay, ceftazidime potentiation; conditions: ceftazidime MIC 8-fold; ec310 ACT-1 class C
[27] = test system: KP1012 Klebsiella pneumoniae SHV-18; test: Checkerboard assay, ceftazidime potentiation; conditions: ceftazidime MIC 8-fold; KP1012 SHV-18 class A
[28] = test system: ec301 Escherichia coli TEM-6; test: Checkerboard assay, ceftazidime potentiation; conditions: ceftazidime MIC 8-fold; ec301 TEM-6 class A
[29] = test system: ec308 Escherichia coli SHV-5; test: Checkerboard assay, ceftazidime potentiation; conditions: ceftazidime MIC 8-fold; ec308 SHV-5 class A
[30] = test system: EC1009 Escherichia coli TEM-10; test: Checkerboard assay, ceftazidime potentiation; conditions: ceftazidime MIC 8-fold; EC1009 TEM-10 class A
[31] = test system: ECL1004 Enterobacter cloacae NMC-A; test: Checkerboard assay, biapenem potentiation; conditions: Biapenem MIC 8-fold; ECL1004 NMC-A class A
[32] = biological target: various β-lactamases (bacterial lysates) (Escherichia coli, UniProt Q53TY8); test: Inhibition of nitrocefin cleavage by bacterial lysates, Table 11; assay type: biochemical; conditions: lysate EC1010 pAmpC (CMY-6), read-out: NCF IC50 EC1010 pAmpC (CMY-6)
[33] = biological target: various β-lactamases (bacterial lysates) (Escherichia coli, UniProt A0A5R8T042); test: biochemical; assay type: biochemical; conditions: read-out: AZT IC50 KP1009 CTX-M-15
Sequence of various β-lactamases (bacterial lysates) (Escherichia coli, UniProt A0A5R8T042) (A0A5R8T042 29-291): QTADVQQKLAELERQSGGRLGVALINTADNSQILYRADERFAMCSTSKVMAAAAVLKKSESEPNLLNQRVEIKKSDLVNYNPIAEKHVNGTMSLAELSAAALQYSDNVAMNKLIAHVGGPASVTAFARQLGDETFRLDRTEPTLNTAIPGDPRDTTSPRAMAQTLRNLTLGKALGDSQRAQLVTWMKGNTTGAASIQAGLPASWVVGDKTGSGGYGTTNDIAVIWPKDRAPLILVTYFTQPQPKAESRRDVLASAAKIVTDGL

[34] = biological target: various β-lactamases (bacterial lysates) (Klebsiella pneumoniae, UniProt Q9F663); test: biochemical; assay type: biochemical; conditions: for IC50: lysate KP1004 KPC-2, read-out: AZT IC50 KP1004 KPC-2 (converted)
[35] = biological target: various β-lactamases (bacterial lysates) (Pseudomonas aeruginosa, UniProt P14489); test: biochemical; assay type: biochemical; conditions: AZT IC50 KP1007 OXA-10
[36] = biological target: various β-lactamases (bacterial lysates) (Escherichia coli, UniProt A0A649V088); test: biochemical; assay type: biochemical; conditions: read-out: AZT IC50 KP1005 CTX-M-14
[37] = biological target: various β-lactamases (bacterial lysates) (Klebsiella pneumoniae, UniProt Q9F663, H272Y); test: biochemical; assay type: biochemical
[38] = biological target: various β-lactamases (bacterial lysates) (Salmonella typhimurium, UniProt P0A1V8); test: biochemical; assay type: biochemical; conditions: AZT IC50 KPX1001 OXA-2
[39] = biological target: SME-2, lysate of SM1000 (Serratia marcescens, UniProt P52682); test: Inhibition of biapenem hydrolysis by bacterial lysate; conditions: read-out: IC50 of inhibition of biapenem hydrolysis; SM1000 SME-2
[40] = test system: strains expressing class A ESBLs; assay type: cell-based
Description: Selected β-lactamase inhibitors were also tested for their ability to potentiate the monobactam tigemonam.

[41] = biological target: GES-1, lysate of pa 1063 (Klebsiella pneumoniae, UniProt Q9KJY7); test: Inhibition of ceftazidime hydrolysis by bacterial lysate
[42] = biological target: CTX-M-15, lysate of KP1009 (Escherichia coli, UniProt Q9EXV5); test: as above
Sequence of CTX-M-15, lysate of KP1009 (Q9EXV5 entry or part of it): as the sequence (A0A5R8T042 29-291) above

[43] = biological target: OXA-10, lysate of KP1007 (Pseudomonas aeruginosa, UniProt P14489); test: as above
[44] = biological target: SHV-5, lysate of ec308 (Escherichia coli, UniProt P0AD63, E235K/G234S); test: as above
[45] = biological target: SHV-2, lysate of ec306 (Escherichia coli, UniProt P0A9Z7); test: as above

## O=C(O)CC1CC[C@H](NC(=O)Cc2cccs2)B(O)O1 (stereo partly drawn) [Compound 1, 2-((3R)-2-hydroxy-3-(2-(thiophen-2-yl)acetamido)-1,2-oxaborinan-6-yl)acetic acid]
[1]
  MPC8: X (MPC8 of 2.5 μg/mL or less)
[2]
  MPC8: Y (MPC8 of greater than 2.5 μg/mL to 10 μg/mL)
[3]
  MPC8: Y (MPC8 of 0.16 μg/mL to 1 μg/mL)
[4]
  MPC8: Z (MPC8 of greater than 10 μg/mL)
[5]
  MPC8: Z (MPC8 of greater than 10 μg/mL)
[6]
  MPC8: Z (MPC8 of greater than 10 μg/mL)
[7]
  MPC8: Y (MPC8 of greater than 2.5 μg/mL to 10 μg/mL)
[8]
  MPC8: X (MPC8 of 2.5 μg/mL or less)
[9]
  MPC8: Y (MPC8 of greater than 2.5 μg/mL to 10 μg/mL)
[10]
  MPC8: X (MPC8 of 2.5 μg/mL or less)
[11]
  MPC8: X (MPC8 of 2.5 μg/mL or less)
[12]
  MPC8: Y (MPC8 of greater than 2.5 μg/mL to 10 μg/mL)
[13]
  MPC8: Y (MPC8 of greater than 2.5 μg/mL to 10 μg/mL)
[14]
  MPC8: X (MPC8 of 2.5 μg/mL or less)
[15]
  MPC8: Y (MPC8 of greater than 2.5 μg/mL to 10 μg/mL)
[16]
  MPC8: X (MPC8 of less than 0.16 μg/mL)
[17]
  MPC8: Y (MPC8 of greater than 2.5 μg/mL to 10 μg/mL)
[18]
  MPC8: Y (MPC8 of greater than 2.5 μg/mL to 10 μg/mL)
[19]
  MPC8: Y (MPC8 of greater than 2.5 μg/mL to 10 μg/mL)
[20]
  MPC8: Z (MPC8 of greater than 10 μg/mL)
[21]
  MPC8: Z (MPC8 of greater than 10 μg/mL)
[22]
  MPC8: Z (MPC8 of greater than 10 μg/mL)
[23]
  MPC8: Y (MPC8 of greater than 2.5 μg/mL to 10 μg/mL)
[24]
  MPC8: Y (MPC8 of greater than 2.5 μg/mL to 10 μg/mL)
[25]
  MPC8: Z (MPC8 of greater than 10 μg/mL)
[26]
  MPC8: X (MPC8 of 2.5 μg/mL or less)
[27]
  MPC8: Y (MPC8 of greater than 2.5 μg/mL to 10 μg/mL)
[28]
  MPC8: Z (MPC8 of greater than 10 μg/mL)
[29]
  MPC8: Y (MPC8 of greater than 2.5 μg/mL to 10 μg/mL)
[30]
  MPC8: Z (MPC8 of greater than 10 μg/mL)
[31]
  MPC8: Y (MPC8 of 0.16 μg/mL to 1 μg/mL)

## O=C(O)CC1CC[C@H](NC(=O)Cc2ccccc2)B(O)O1 (stereo partly drawn) [Compound 2, 2-((3R)-2-hydroxy-3-(2-phenylacetamido)-1,2-oxaborinan-6-yl)acetic acid]
[3]
  MPC8: Y (MPC8 of 0.16 μg/mL to 1 μg/mL)
[16]
  MPC8: X (MPC8 of less than 0.16 μg/mL)
[31]
  MPC8: Y (MPC8 of 0.16 μg/mL to 1 μg/mL)

## Nc1nc(/C(=N/OCc2cc(=O)c(O)cn2O)C(=O)N[C@H]2CC[C@@H](CC(=O)O)OB2O)cs1 [Compound 62, 2-((3R)-3-((Z)-2-(2-aminothiazol-4-yl)-2-((1,5-dihydroxy-4-oxo-1,4-dihydropyridin-2-yl)methoxyimino)acetamido)-2-hydroxy-1,2-oxaborinan-6-yl)acetic acid]
[32]
  pIC50: < 5.38
[33]
  pIC50: 5.38 to 5.98
[34]; aztreonam cleavage
  IC50: 1040 to 4160 nM
[34]; lysate KP1008 KPC-2, aztreonam cleavage, read-out: AZT IC50 KP1008 KPC-2
  pIC50: > 5.98
[35]
  pIC50: < 5.38
[36]
  pIC50: 5.38 to 5.98
[37]
  pIC50: > 5.98
[38]
  pIC50: < 5.38

## C[C@]1(Cn2ccnn2)[C@H](C(=O)O)N2C(=O)C[C@H]2S1(=O)=O [Tazobactam, reference compound]
[39]
  pIC50: 5.48 to 6.48
[40]
  MPC4 CTX-M-14 KP1005: 10 µg/mL
  MPC4 CTX-M-15 KP1009: 10 µg/mL
  MPC4 SHV-5 ec308: 5 µg/mL
  MPC4 SHV-12 KP1010: 1.25 µg/mL
  MPC4 SHV-18 KP1012: 1.25 µg/mL
  MPC4 TEM-10 EC1009: 2.5 µg/mL
  MPC4 TEM-10 ec302: 5 µg/mL
  MPC4 TEM-26 ec304: 1.25 µg/mL
[41]
  pIC50: 5.48 to 6.48
[42]
  pIC50: > 6.48
[43]
  pIC50: 5.48 to 6.48
[44]
  pIC50: > 6.48
[45]
  pIC50: 5.48 to 6.48
[34]; AZT IC50 KP1008 KPC-2
  pIC50: 5.13
[34]; aztreonam cleavage, numeric values
  IC50: 2460 nM
[35]
  pIC50: 4.83
[37]
  pIC50: 5.61
